This is an account of results in article doi:10.1101/2023.10.24.563163v2, “Targeting cancer with small molecule pan-KRAS degraders” (biorxiv, 2024).

For orientation: Dmax means the greatest extent of degradation seen. The Kd is a measure of binding affinity in units of concentration. Higher therefore signals lower affinity.

Assay [1] deals with HEK293. In words: cells. Also noted: Inhibition of cell proliferation, 5 days. The following applies: Homo sapiens, HEK293, 120 h; read-out: IC50 Proliferation HEK293. From the text:
(§1) Next, we set out to test the ability of a single pan-KRAS degrading molecule, compound 4, to selectively suppress oncogenic signaling and proliferation in cancer cell lines driven by diverse KRAS mutants. To this end, we first confirmed degradation of KRAS by compound 4 in KRAS-dependent (GP2d, SW620 and NCI-H358 expressing KRAS^G12D, - G12V or -G12C, respectively) as well as in KRAS independent (A-375, HEK293) cell lines (Fig. 3A, fig. S4A). […] Both inhibition and degradation repressed the established markers of MAPK signaling pERK (fig. S4B-D) and DUSP6 (Fig. 3B, fig. S4E) in KRAS dependent cell lines. […] Neither degradation nor inhibition had appreciable antiproliferative effects in the KRAS independent cell lines A-375 and HEK293 (Fig. 3C, fig. S4F). […] Pan-KRAS degradation impacts MAPK signaling and cancer cell proliferation.

The test system of assay [2] is NCI-H358. In words: cells. Further details: Inhibition of cell proliferation, 5 days. The following applies: Homo sapiens, NCI-H358, 120 h; read-out: IC50 Proliferation NCI-H358.
Excerpt: as §1

For assay [3], the system named is SW620. In words: cells. Further details: Inhibition of cell proliferation, 5 days. Conditions: Homo sapiens, SW-620, 120 h; read-out: IC50 Proliferation SW620.
Excerpt: as §1

For assay [4], the system named is A375. In words: cells. Further details: Inhibition of cell proliferation, 5 days. The following applies: Homo sapiens, A-375, 120 h; read-out: IC50 Proliferation A375.
Excerpt: as §1

In assay [5] the test system is GP2d. In words: cells. Further details: Inhibition of cell proliferation, 5 days. Conditions: 120 h, read-out: IC50 Proliferation GP2d.
Excerpt: as §1

In assay [6] the target is T1, KRAS^WT (Homo sapiens, UniProt P01116).
T1 construct: endogenous wild type
T1 sequence (P01116 whole entry): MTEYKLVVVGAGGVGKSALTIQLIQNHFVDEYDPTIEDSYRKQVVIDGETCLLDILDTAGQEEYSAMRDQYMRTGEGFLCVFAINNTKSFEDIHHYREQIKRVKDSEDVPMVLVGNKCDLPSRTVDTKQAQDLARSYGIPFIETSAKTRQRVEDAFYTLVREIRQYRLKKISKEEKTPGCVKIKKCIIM
In words: cell-based. Further details: KRAS degradation by capillary electrophoresis immunodetection. Conditions: A-375; read-out: Dmax 24 h A375 [%]. The procedure: (§2) Protein Detection by Capillary Electrophoresis Cells (50 000) were seeded the day before treatment into 96-well clear-flat bottom plates and incubated overnight (37 °C, humidified tissue culture incubator, 5% CO2). Compounds were added from DMSO stock solution using a digital dispenser and cells are incubated at 37 °C as specified (24 hours for KRAS degradation, 6 hours for determination of pERK levels). At the end of the incubation, medium was removed, cells washed with ice cold PBS, PBS removed and 50 µL lysis buffer (Meso Scale Discovery #R60TX-2) supplemented with 1:100 protease inhibitor solution, 1:100 phosphatase inhibitor I, 1:100 phosphatase inhibitor II (Meso Scale Discovery #R70AA-1), 0.5 µL/mL Benzonase (Novagen #70664-3) and 10 mM dithiothreitol added to each well. Plates with lysis buffer were immediately transferred to -80 °C freezer for at least 2 hours and then thawed on ice. Lysates were transferred to a 96 well V-bottom plate and insoluble debris was pelleted by centrifugation for 20 min. at 4 000 rpm. 40 µL of the supernatant were transferred to a fresh Eppendorf PCR plate. Analysis of protein levels was conducted using the Wes System, ProteinSimple (https://www.bio-techne.com/) as specified by the manufacturer. Briefly, Wes Master Mix (12-230 kDa WES Separation Module, 8 × 25 capillary cartridges, ProteinSimple #SM-W004) and molecular weight markers were prepared as specified in the manufacturer’s recommendations. To detect primary antibodies, anti-rabbit (Protein Simple #DM-001) or anti-mouse (Protein Simple #DM-002) detection modules were used. 7.2 µL lysate + 1.8 µL master mix were combined and heated to 95 °C for 5 min. […] Next, we set out to test the ability of a single pan-KRAS degrading molecule, compound 4, to selectively suppress oncogenic signaling and proliferation in cancer cell lines driven by diverse KRAS mutants. To this end, we first confirmed degradation of KRAS by compound 4 in KRAS-dependent (GP2d, SW620 and NCI-H358 expressing KRAS^G12D, - G12V or -G12C, respectively) as well as in KRAS independent (A-375, HEK293) cell lines (Fig. 3A, fig. S4A). […] Both inhibition and degradation repressed the established markers of MAPK signaling pERK (fig. S4B-D) and DUSP6 (Fig. 3B, fig. S4E) in KRAS dependent cell lines. […] Neither degradation nor inhibition had appreciable antiproliferative effects in the KRAS independent cell lines A-375 and HEK293 (Fig. 3C, fig. S4F).

Assay [7] has as its system SW620. In words: cells. Further details: DUSP6 modulation. The following applies: Homo sapiens, SW-620, 6 h; read-out: IC50 DUSP6. The text has this:
(§3) Next, we set out to test the ability of a single pan-KRAS degrading molecule, compound 4, to selectively suppress oncogenic signaling and proliferation in cancer cell lines driven by diverse KRAS mutants. To this end, we first confirmed degradation of KRAS by compound 4 in KRAS-dependent (GP2d, SW620 and NCI-H358 expressing KRAS^G12D, - G12V or -G12C, respectively) as well as in KRAS independent (A-375, HEK293) cell lines (Fig. 3A, fig. S4A). […] Both inhibition and degradation repressed the established markers of MAPK signaling pERK (fig. S4B-D) and DUSP6 (Fig. 3B, fig. S4E) in KRAS dependent cell lines. […] Neither degradation nor inhibition had appreciable antiproliferative effects in the KRAS independent cell lines A-375 and HEK293 (Fig. 3C, fig. S4F).

For assay [8], the system named is GP2d. In words: cells. Further details: DUSP6 modulation. Conditions: GP2d, 6 h; read-out: IC50 DUSP6.
Excerpt: as §3

The subject of assay [9] is HEK293. In words: cells. Conditions: Homo sapiens, HEK293, 6 h. Also noted: pERK levels by capillary electrophoresis. The procedure:
(§4) Protein Detection by Capillary Electrophoresis Cells (50 000) were seeded the day before treatment into 96-well clear-flat bottom plates and incubated overnight (37 °C, humidified tissue culture incubator, 5% CO2). Compounds were added from DMSO stock solution using a digital dispenser and cells are incubated at 37 °C as specified (24 hours for KRAS degradation, 6 hours for determination of pERK levels). At the end of the incubation, medium was removed, cells washed with ice cold PBS, PBS removed and 50 µL lysis buffer (Meso Scale Discovery #R60TX-2) supplemented with 1:100 protease inhibitor solution, 1:100 phosphatase inhibitor I, 1:100 phosphatase inhibitor II (Meso Scale Discovery #R70AA-1), 0.5 µL/mL Benzonase (Novagen #70664-3) and 10 mM dithiothreitol added to each well. Plates with lysis buffer were immediately transferred to -80 °C freezer for at least 2 hours and then thawed on ice. Lysates were transferred to a 96 well V-bottom plate and insoluble debris was pelleted by centrifugation for 20 min. at 4 000 rpm. 40 µL of the supernatant were transferred to a fresh Eppendorf PCR plate. Analysis of protein levels was conducted using the Wes System, ProteinSimple (https://www.bio-techne.com/) as specified by the manufacturer. Briefly, Wes Master Mix (12-230 kDa WES Separation Module, 8 × 25 capillary cartridges, ProteinSimple #SM-W004) and molecular weight markers were prepared as specified in the manufacturer’s recommendations. To detect primary antibodies, anti-rabbit (Protein Simple #DM-001) or anti-mouse (Protein Simple #DM-002) detection modules were used. 7.2 µL lysate + 1.8 µL master mix were combined and heated to 95 °C for 5 min. Th

The subject of assay [10] is SW620. In words: cells. Further details: pERK levels by capillary electrophoresis. Conditions: Homo sapiens, SW-620, 6 h. The method, then:
as §4

The test system of assay [11] is A375. In words: cells. Conditions: Homo sapiens, A-375, 6 h. Further details: pERK levels by capillary electrophoresis. The method, then: as §4
For assay [12], the system named is GP2d. In words: cells. Further details: pERK levels by capillary electrophoresis. The following applies: GP2d, 6 h. The procedure:
as §4

Assay [13] deals with KRAS^G12D (Homo sapiens, UniProt P01116, G12D). In words: cell-based. Further details: endogenous; KRAS degradation by capillary electrophoresis immunodetection. The following applies: GP2d; read-out: Dmax 24 h GP2d [%]. The procedure:
as §2

Assay [14] has as its target KRAS^G12V (Homo sapiens, UniProt P01116, G12V). In words: cell-based. The following applies: SW-620; read-out: Dmax 24 h SW620 [%]. Further details: endogenous; KRAS degradation by capillary electrophoresis immunodetection. The method, then: as §2
Assay [15] concerns the target T2, KRAS (Homo sapiens, UniProt P01116, C118S/G12V).
T2 construct: residues 1-169, C118S background; His6 tag removed, E. coli; biotinylated for SPR
In words: SPR, biotinylated KRAS immobilised. The class given is binding.

The subject of assay [16] is NCI-H358. In words: cells. Also noted: DUSP6 modulation. Conditions: Homo sapiens, NCI-H358, 6 h; read-out: IC50 DUSP6.
Excerpt: as §3

Assay [17] has as its system NCI-H358. In words: cells. Conditions: Homo sapiens, NCI-H358, 6 h. Further details: pERK levels by capillary electrophoresis. The procedure: as §4

Read-outs that look alike come from different tables or passages of the source. Where only a bound is given, the exact number is not on record here.

T2 sequence (P01116 1-169 G12V/C118S): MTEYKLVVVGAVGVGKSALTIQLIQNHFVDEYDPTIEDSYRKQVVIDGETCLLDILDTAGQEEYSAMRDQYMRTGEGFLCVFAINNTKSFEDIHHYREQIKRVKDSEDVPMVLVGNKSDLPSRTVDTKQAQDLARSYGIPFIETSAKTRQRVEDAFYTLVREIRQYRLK
Chain of KRAS^G12V (P01116 whole entry G12V): as the sequence (P01116 whole entry) above, with G12V counted along it
Chain of KRAS^G12D (P01116 whole entry G12D): as the sequence (P01116 whole entry) above, with G12D counted along it

`C[C@H](Oc1ccnc(-c2noc([C@@]3(C)CCCc4sc(N)c(C#N)c43)n2)n1)[C@@H]1CCCN1C` [BI-2865]: the IC50 in assay [1] is above 1000 nM; in [2], 613 nM; in [3], 208 nM; in assay [4], above 1000 nM; in assay [5], 251 nM.
As for `C#Cc1c(F)ccc2cc(O)cc(-c3ncc4c(N5C[C@H]6CC[C@@H](C5)N6)nc(OC[C@@]56CCCN5C[C@H](F)C6)nc4c3F)c12` [MRTX1133], the Dmax in assay [6], in assay [13] and in [14] was below 15% in each case. Also, the IC50 is 310 nM in assay [7]; 0.1 nM in [8]; above 1000 nM in assay [9]; above 1000 nM in assay [10]; above 1000 nM in [11]; 1.3 nM in assay [12]. Also, the IC50 in [5] came out at 2.4 nM.
Regarding `C[C@H]1CNCCCN1c1nccc(-c2noc([C@@]3(C)CCCc4sc(N)c(C#N)c43)n2)n1` [compound 1], the Kd in assay [15] was found to be 25 nM.
As to `C=CC(=O)N1CCN(c2nc(=O)n(-c3c(C)ccnc3C(C)C)c3nc(-c4c(O)cccc4F)c(F)cc23)[C@@H](C)C1` [sotorasib], the IC50 is 5.6 nM in [16], 29 nM in assay [17] and 12.3 nM in assay [2].
